Data published in US11166941B2, “Synergistic nutritional compositions for enhancing ATP efficiency” (CELAGENEX RESEARCH (INDIA) PVT. LTD., priority 2020, dated 2021).

Experiments:
[1] = tested on: HepG2 cells; assay: Estimation of cellular respiration by measuring cellular ATP levels (kit method) in HepG2 cells; assay type: cell-based, Human; conditions: for ATP enhancement fold / % ATP Enhancement: over control; for Cellular ATP Conc.: HepG2, 2 hours treatment
Procedure: The test substances were evaluated for their in vitro effect on cellular energy by measuring cellular ATP levels in human Hepatocytes (HepG2) cell line. In the given experimental conditions, treatment with the test substances improved cellular ATP levels in vitro [J Immunol Methods; 1986; 89: 271-277]; [Proc Nal Acad Sci USA; 2009; 106: 15651-15656].
For test substance ABC, the test substances were combined in the weight ratio of 1:0.05:0.01. A weight of about 10 mg of ABC was dissolved in 100 μl of DMSO and the volume was made up to 1 ml with DMEM-HG (Dulbecco's Modified Eagle Medium High Glucose). For individual test substances A, B and C, about 10 mg of all the test substances were weighed and separately dissolved with 100 μl of DMSO and volume was made up with DMEM-HG supplemented with 2% inactivated FBS to obtain a stock solution of 1 mg/ml concentration. The samples were further sterilized by 0.22 syringe filtration. Serial two-fold dilutions were prepared from the stock for carrying out further studies.
Cell line was cultured in DMEM-HG supplemented with 10% inactivated Fetal Bovine Serum (FBS), penicillin (100 IU/ml), streptomycin (100 μg/ml) and amphotericin B (5 μg/ml) in a humidified atmosphere of 5% CO2 at 37° C. until confluent. The cells were dissociated with TPVG solution (0.2% trypsin, 0.02% EDTA, 0.05% glucose in PBS). The stock cultures were grown in 25 cm^2 culture flasks and all experiments were carried out in 96 well microtitre plates (Tarsons India Pvt. Ltd., Kolkata, India).
HepG2 cells were trypsinized from stock culture flasks and the cell count was adjusted to 1.0×10^5 cells/ml to obtain a cell suspension that was seeded into a 6-well plate. After 24 hours, cell cultures achieved 70-80% confluency and were treated with different nontoxic concentrations of test substances. After 2 hours of treatment, the plate was washed with phosphate buffer saline. The cellular ATP level determination was performed according to the instructions given in the kit manual (SIGMA, #MAK190). At the end of the experiment, the optical density was read at 570 nm using microplate reader. From the absorbance values, the cellular ATP levels were estimated using kit protocol and the concentration of cellular ATP in treated groups were determined in comparison to the control groups.

[2] = tested on: HepG2 (Human Hepatocyte) cell line; assay: In vitro cytotoxicity by MTT assay on HepG2 cell line; assay type: cell-based; conditions: 72 hours; for IC50 / inhibition at 62.5 µg/mL / inhibition at 125 µg/mL / inhibition at 250 µg/mL / inhibition at 500 µg/mL / inhibition at 1000 µg/mL: Homo sapiens; for IC50: read-out: CTC 50
Procedure: The in vitro cytotoxicity was performed on HepG2 (Human Hepatocyte) cell line to find a non-toxic concentration of the test substances by MTT assay and the potential of test substances to increase the cellular ATP levels was evaluated by kit method. For test substance ABC, the test substances were combined in the weight ratio of 1:0.05:0.01. A weight of about 10 mg of ABC was dissolved in 100 μl of DMSO and the volume was made up to 1 ml with DMEM-HG (Dulbecco's Modified Eagle Medium High Glucose). For individual test substances A, B and C, about 10 mg of all the test substances were weighed and separately dissolved with 100 μl of DMSO and volume was made up with DMEM-HG supplemented with 2% inactivated FBS to obtain a stock solution of 1 mg/ml concentration. The samples were further sterilized by 0.22 syringe filtration. Serial two-fold dilutions were prepared from the stock for carrying out further studies. Cell line was cultured in DMEM-HG supplemented with 10% inactivated Fetal Bovine Serum (FBS), penicillin (100 IU/ml), streptomycin (100 μg/ml) and amphotericin B (5 μg/ml) in a humidified atmosphere of 5% CO2 at 37° C. until confluent. The cells were dissociated with TPVG solution (0.2% trypsin, 0.02% EDTA, 0.05% glucose in PBS). The stock cultures were grown in 25 cm^2 culture flasks and all experiments were carried out in 96 well microtitre plates (Tarsons India Pvt. Ltd., Kolkata, India). The monolayer cell culture was trypsinized and the cell count was adjusted to 1.0×10^5 cells/ml using DMEM-HG containing 10% FBS. To each well of the 96 well microtitre plate, 0.1 ml of the diluted cell suspension was added. After 24 hours, when a partial monolayer was formed, the supernatant was flicked off, the monolayer was washed once with medium and 100 μl of different concentrations of test substances were added. The plate was then incubated at 37° C. for 72 hours in a 5% CO2 atmosphere, and microscopic examination was carried out with observations being noted at a 24-hour interval. After 72 hours of incubation, the drug solutions in the wells were discarded and 50 μl of MTT in PBS was added to each well. The plate was gently shaken and incubated for 3 hours at 37° C. in a 5% CO2 atmosphere. The supernatant was removed and 100 μl of 2-propanol was added and the plate was gently shaken to solubilize the formed formazan. The absorbance was measured using a microplate reader at a wavelength of 540 nm. The percentage growth inhibition was calculated using the standard formula. The concentration of test substances needed to inhibit the growth of the cell by 50% i.e., CTC50 values were generated from the dose-response curves.

[3] = cell studies, background statement; cited from earlier work
[4] = concentration inhibiting cell growth by 50%

| Compound | enhancement of cellular ATP levels over the control (in words) ([1]; HepG2, 500 μg/ml) | % ATP Enhancement ([1]; HepG2, 500 μg/ml) [%] | ATP enhancement fold ([1]; HepG2, 500 μg/ml) [fold] | IC50 [2, 4] [µg/mL] | inhibition at 62.5 µg/mL ([2]; test conc. 62.5 μg/ml) [%] | inhibition at 125 µg/mL ([2]; test conc. 125 μg/ml) [%] | inhibition at 250 µg/mL ([2]; test conc. 250 μg/ml) [%] | inhibition at 500 µg/mL ([2]; test conc. 500 μg/ml) [%] | inhibition at 1000 µg/mL ([2]; test conc. 1000 μg/ml) [%] | further results |
| --- | --- | --- | --- | --- | --- | --- | --- | --- | --- | --- |
| OO [Composition H2O2, H2O2, reference compound] | – | – | – | – | – | – | – | – | – | ATP enhancement fold ([1]; HepG2, 20 μM): 0.67 fold; Cellular ATP Conc. ([1]; 20 μM): 1.97 ± 0.45 mM |
| O=C(O)CCCC[C@@H]1SC[C@@H]2NC(=O)N[C@@H]21 [D-Biotin (B), Biotin] | No significant enhancement | 22 | 1.11 | > 1000 | 6.13 ± 3.48 | 25.1 ± 0.81 | 31.2 ± 1.17 | 42.9 ± 1.29 | 47.6 ± 1.45 | Cellular ATP Conc. ([1]; 500 μg/ml, listed as B): 6.05 ± 0.33 mM; Cellular ATP Conc. ([1]; 500 μg/ml, listed as Biotin (B)): 6.05 ± 0.33 mM |
| Oc1ccc(C=Cc2cc(O)cc(O)c2)cc1 [Resveratrol, reference compound] | – | – | – | – | – | – | – | – | – | % ATP Enhancement ([1]; HepG2, 100 μg/ml): 13%; ATP enhancement fold ([1]; HepG2, 100 μg/ml): 1.09 fold; Cellular ATP Conc. ([1]; 100 μg/ml): 5.56 ± 0.37 mM |
| O=C(O)CC(=O)C(=O)O [Stabilized Oxaloacetate (A), Oxaloacetic acid] | No significant enhancement | 10 | 1.09 | > 1000 | 10.7 ± 0.84 | 16.6 ± 0.82 | 23.8 ± 2.25 | 34.4 ± 2.2 | 40.4 ± 1.22 | Cellular ATP Conc. ([1]; 500 μg/ml): 5.42 ± 0.25 mM; Cellular ATP Conc. ([1]; 500 μg/ml, listed as Oxaloacetic acid (A)): 5.42 ± 0.25 mM |
| O=C(O)CC(=O)C(=O)O [oxaloacetate] | – | – | – | – | – | – | – | – | – | increase muscular endurance [3]: up to 10% |
| manganese (II) sulphate monohydrate [Manganese-Sulphate (C)] | No significant enhancement | 00 | 1.00 | – | – | – | – | – | – | Cellular ATP Conc. ([1]; 500 μg/ml, listed as C, sulphate monohydrate): 4.92 ± 0.13 mM; Cellular ATP Conc. ([1]; 500 μg/ml, listed as Manganese sulphate (C), sulphate monohydrate): 4.92 ± 0.13 mM; CTC 50 [2, 4]: 558.91 ± 6.22 µg/mL; % Inhibition ([2]; test conc. 62.5 μg/ml): 30.00 ± 0.54%; % Inhibition ([2]; test conc. 125 μg/ml): 35.54 ± 0.47%; % Inhibition ([2]; test conc. 250 μg/ml): 42.44 ± 0.81%; % Inhibition ([2]; test conc. 500 μg/ml): 48.75 ± 0.18%; % Inhibition ([2]; test conc. 1000 μg/ml): 59.35 ± 0.63% |
